According to publication PMC5094990, “Novel 1, 3-N, O-Spiroheterocyclic compounds inhibit heparanase activity and enhance nedaplatin-induced cytotoxicity in cervical cancer cells” (Oncotarget, 2016):
Where two headings read alike, the source gives them in different places.

How the values were obtained:
human recombinant HPA = target: T1, human recombinant HPA (Homo sapiens, UniProt Q9Y251); test: Detection of HPA activity inhibition (Heparan Degrading Enzyme Assay Kit); type: biochemical; conditions: 31 mIU human recombinant HPA, 37°C, 45 minutes; read-out: IC50, inhibitory effect on heparanase activity
T1 sequence (Q9Y251 158-543 limits assumed): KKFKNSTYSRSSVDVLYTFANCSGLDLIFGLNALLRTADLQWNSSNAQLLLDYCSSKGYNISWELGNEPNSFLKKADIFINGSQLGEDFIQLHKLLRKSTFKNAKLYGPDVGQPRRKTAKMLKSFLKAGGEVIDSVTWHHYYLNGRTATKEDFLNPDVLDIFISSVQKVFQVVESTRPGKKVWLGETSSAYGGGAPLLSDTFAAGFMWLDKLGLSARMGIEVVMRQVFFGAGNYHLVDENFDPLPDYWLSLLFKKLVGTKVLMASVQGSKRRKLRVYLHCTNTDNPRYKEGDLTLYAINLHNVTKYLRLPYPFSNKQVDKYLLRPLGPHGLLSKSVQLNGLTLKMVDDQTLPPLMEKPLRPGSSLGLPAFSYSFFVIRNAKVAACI
T1 sequence (Q9Y251 36-109 limits assumed): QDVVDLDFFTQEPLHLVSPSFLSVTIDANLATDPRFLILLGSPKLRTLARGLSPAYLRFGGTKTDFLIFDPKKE
Experimental: The final reaction volume of each vial was 100 μl. […] Then, 100 μl of terminating liquid was added into each well. OD values were examined at a wavelength of 450 nm. Each concentration was tested in three separate wells. GraphPad Prism 5 (GraphPad Prism Software Inc., San Diego) was used to calculate the inhibitory IC50 values.

HeLa cells [1] = test: MTT assay, growth inhibition of HeLa cells; type: cell-based, human; conditions: for inhibition at 1 µM / inhibition at 5 µM / inhibition at 15 µM / inhibition at 30 µM / inhibition at 60 µM / inhibition at 120 µM / inhibition at 180 µM / inhibition at 240 µM / IC50: Homo sapiens, HeLa; for inhibition at 1 µM / inhibition at 5 µM / inhibition at 15 µM / inhibition at 30 µM / inhibition at 60 µM / inhibition at 120 µM / inhibition at 180 µM / inhibition at 240 µM: read-out: Growth inhibition rate in HeLa cells
Experimental: (§1) Cells were cultured in improved medium supplemented with 10% FBS and kept at 37°C in a […] humidified atmosphere containing 5% CO2. Logarithmic phase cells were used for the experiment and were treated with different concentrations of different medications for different amounts of time. […] Inhibitors were made into 10 mM stock solutions with DMSO, filtered, and kept at room temperature away from light. These inhibitor stock solutions were diluted to the required concentration (1, 5, 15, 30, 60, 120, 180, or 240 μM) before every experiment. The final doses of nedaplatin were […]. In order to determine whether an HPA inhibitor sensitized cells to nedaplatin, 10 μM of inhibitor number 16 (No. 16) was added into each experimental well with nedaplatin.
200 μl of single-cell suspension at a density of 5 × 10^4 cells/ml was seeded into 96-well plates. When cells were adherent, the medium was replaced with 200 μl of medium containing different concentrations of inhibitor or nedaplatin, and the cells were further incubated for 24 hours to 96 hours respectively. 20 μl MTT solution ([…] in phosphate buffered saline (PBS)) was added to each well 4 hours before the treatment ended. The cells were then incubated for another 4 hours, after which the supernatants were removed. The cells were totally solubilized in 150 μl DMSO. OD values were measured at the wavelength of 492 nm with a reference wavelength of 630 nm. Inhibition rate (IR) in the cells was calculated as follows: IR = ((OD2-OD0)-(OD1-OD0))/(OD2-OD0) × 100%, where OD0 was the OD value of blank wells, OD2 was the value of normal control wells, and OD1 was the value of experimental wells. Each condition was replicated in six separate wells.

h-TERT = h-TERT expression in HeLa and Siha cells (western blot and PCR); type: cell-based, human; conditions: both HeLa and Siha cells, 50 μM, 48 hours
Experimental: (§2) Cells were washed with precooled PBS after being treated with inhibitor for 48 hours, and cell lysis solution was added to extract protein. The sample concentration was measured by the bicinchoninic acid method. 30 μg of protein was separated by 10% polyacrylamide gel electrophoresis (PAGE) and transferred to polyvinylidene difluoride membranes. After blocking in non-fat milk solution at room temperature, the membranes were incubated with diluted primary antibodies against either proteins of interest or β-actin overnight at 4°C. After consecutive washes, the membranes were incubated with secondary antibody (diluted 1:5000) at room temperature for 1 h. Then, the membranes were developed with enhanced chemiluminescence and imaged with ImageQuant LAS4000 (GE Healthcare Life Sciences, Pittsburgh, PA). The grey values of protein bands were analyzed using Image J (National Institutes of Health, USA). The relative levels of proteins of interest were calculated in comparison to the internal reference β-actin. The experiment was repeated three times.
(§3) Levels of HPA, p53, c-Myc, and hTERT mRNA were analyzed by real-time PCR. mRNA was extracted from cells and separated and purified with Trizol. The total RNA concentration was measured with an ultraviolet spectrophotometer. The quality of total RNA was assessed using 1.5% agarose gel electrophoresis. […]

p53 = p53 expression in HeLa and Siha cells (western blot and PCR); type: cell-based, human; conditions: both HeLa and Siha cells, 50 μM, 48 hours
Experimental: as §2, §3

c-Myc = c-Myc expression in HeLa and Siha cells (western blot and PCR); type: cell-based, human; conditions: both HeLa and Siha cells, 50 μM, 48 hours
Experimental: as §2, §3

[2] = system: HaCaT human normal keratinocytes; test: MTT assay, growth inhibition of HaCaT cells; type: cell-based; conditions: time not given
Experimental: as §1
(§4) 200 μl of single-cell suspension at a density of 5 × 10^4 cells/ml was seeded into 96-well plates. […] OD values were measured at the wavelength of 492 nm with a reference wavelength of 630 nm. Inhibition rate (IR) in the cells was calculated as follows: IR = ((OD2-OD0)-(OD1-OD0))/(OD2-OD0) × 100%, where OD0 was the OD value of blank wells, OD2 was the value of normal control wells, and OD1 was the value of experimental wells. […]

HaCaT cells = test: Cell wound healing assay (migration), HaCaT cells; type: cell-based, human; conditions: 50 μM, 24 hours, compared to control
Experimental: (§5) Straight lines 0.5 cm apart from each other were marked on the bottoms of culture dishes opposite the label lines. Logarithmic phase cells were seeded into 35 mm culture dishes. Nicks were made 0.5 cm apart on the bottom of the dish along the labeled lines with a 200 μl sterile pipette tip after cells were close to saturated. Dishes were then washed with sterile PBS three times, 2% FBS medium containing 0 or 50 μM of No. 16 inhibitor was added, and dishes were incubated for 24 hours. The scratch width was photographed under phase contrast on an inverted microscope with a digital camera (100× magnification). The experiment was repeated three times.

HPA = HPA expression in HeLa and Siha cells (immunocytochemical staining, western blot, real time PCR); type: cell-based, human; conditions: 50 μM, 24 hours, stronger after 48 hours
Excerpt: The experiment was repeated three times.
The experiment was repeated twice.

Siha cells [3] = test: MTT assay, growth inhibition of Siha cells; type: cell-based, human
Experimental: as §1, §4

Siha cells [4] = test: Cell wound healing assay (migration), Siha cells; type: cell-based, human; conditions: 50 μM, 24 hours, compared to control
Experimental: as §5

HeLa cells [5] = test: Cell wound healing assay (migration), HeLa cells; type: cell-based, human; conditions: 50 μM, 24 hours, compared to control
Experimental: as §5

[6] = 48 hours, MTT, read-out: IC50, growth inhibition of HeLa cells

Compound | melting point | IC50 (human recombinant HPA) | inhibition at 1 µM (HeLa cells [1]; 1 μM, 48 hs, mean ± s) | inhibition at 5 µM (HeLa cells [1]; 5 μM, 48 hs, mean ± s) | inhibition at 15 µM (HeLa cells [1]; 15 μM, 48 hs, mean ± s) | inhibition at 30 µM (HeLa cells [1]; 30 μM, 48 hs, mean ± s) | inhibition at 60 µM (HeLa cells [1]; 60 μM, 48 hs, mean ± s) | inhibition at 120 µM (HeLa cells [1]; 120 μM, 48 hs, mean ± s) | inhibition at 180 µM (HeLa cells [1]; 180 μM, 48 hs, mean ± s) | inhibition at 240 µM (HeLa cells [1]; 240 μM, 48 hs, mean ± s) | IC50 (HeLa cells [1]; [6]) | further results
COc1ccc(C2CNC(c3ccc([N+](=O)[O-])cc3)OC23CCCCC3)cc1 (centres unmarked) [No. 15] | 111.3 to 112.5 °C | 28.8 µM | 9.12 ± 0.166% | 17 ± 0.732% | 25.2 ± 0.947% | 33.2 ± 2.34% | 36.2 ± 0.592% | 77.5 ± 3.82% | 92.4 ± 3.08% | 95.2 ± 3.11% | 80 µM | 
COc1ccc(C2CNC(c3ccccc3F)OC23CCCCC3)cc1 (centres unmarked) [No. 16] | 171.3 to 172.5 °C |  |  |  |  |  |  |  |  |  |  | Effect on h-TERT expression (h-TERT): decreased; Effect on p53 expression (p53): increased; Effect on c-Myc expression (c-Myc): decreased; IC50 [2]: 1710 µM; Effect on cell migration (scratch width) (HaCaT cells): minimal; Effect on HPA levels (HPA): reduced HPA levels; IC50 (HeLa cells [1]; 48 h, read-out: IC50, growth inhibition of HeLa cells, 48 hours, MTT): 48.2 µM; inhibition at 1 µM (HeLa cells [1]): 7.41 ± 0.976%; inhibition at 5 µM (HeLa cells [1]): 11 ± 0.467%; inhibition at 15 µM (HeLa cells [1]): 20.2 ± 0.779%; inhibition at 30 µM (HeLa cells [1]): 36.5 ± 0.471%; inhibition at 60 µM (HeLa cells [1]): 59.3 ± 1.1%; inhibition at 120 µM (HeLa cells [1]): 87.6 ± 0.891%; inhibition at 180 µM (HeLa cells [1]): 92.89 ± 0.537%; inhibition at 240 µM (HeLa cells [1]): 92.98 ± 0.237%; IC50 (Siha cells [3]; Homo sapiens, SiHa, read-out: IC50, growth inhibition of Siha cells): 78.8 µM; Effect on cell migration (scratch width) (Siha cells [4]): inhibited the migration; Effect on cell migration (scratch width) (HeLa cells [5]): inhibited the migration
COc1ccc(C2CNC(c3ccc(C)cc3)OC23CCCCC3)cc1 (centres unmarked) [No. 20] | 105.4 to 106.7 °C | 14.1 µM | 5.01 ± 0.247% | 5.02 ± 0.0834% | 13.3 ± 0.32% | 19.4 ± 1.34% | 38.49 ± 0.255% | 66.3 ± 1.14% | 90.5 ± 1.12% | 95.44 ± 0.525% | 77.6 µM | 
COc1ccc(C2CNC(c3ccc(F)cc3F)OC23CCCCC3)cc1 (centres unmarked) [No. 22] | 128.7 to 129.6 °C |  | -3.13 ± 0.705% | -0.339 ± 0.0726% | 4.27 ± 0.729% | 22.1 ± 0.976% | 36.13 ± 0.285% | 66 ± 0.898% | 93.9 ± 1.67% | 95.18 ± 0.39% | 75.2 µM | 
[NH2][Pt]1([NH2])[O]CC(=O)[O]1 [nedaplatin] |  |  |  |  |  |  |  |  |  |  |  | IC50, growth inhibition of HeLa cells by nedaplatin alone (HeLa cells [1]; 48 hours, nedaplatin alone, listed as NDP): 2.878 µg/mL; IC50, growth inhibition of Siha cells by nedaplatin alone (Siha cells [3]; 48 hours, nedaplatin alone): 11.204 µg/mL
